Patent US4695569A, “Bicyclic heterocyclyl containing N-(bicyclic heterocyclyl)-4-piperidinamines” (Janssen Pharmaceutica N.V., priority 1987, dated 1987)
Where two headings read alike, the source gives them in different places.

Columns and labels:
serotonin = assay: Antagonistic activity on the effects of serotonin in the gastric lesion test (lesions induced by compound 48/80); assay type: in vivo, rat (male, Wistar inbred strain)
Source text: The compounds of formula (I) and the pharmaceutically acceptable acid addition salts thereof are also potent serotonin-antagonists. The potency of the subject compounds as serotonin-antagonists is clearly evidenced by the results obtained in the following tests wherein the antagonistic activity of the subject compounds on the effect of serotonin is examined.
Antagonistic activity on the effects of serotonin in the gastric lesion test
Comound 48/80 (a mixture of oligomers obtained by condensation of 4-methoxy-N-methylbenzeneethanamine and formaldehyde) is a potent releaser of vasoactive amines from endogenous stores such as, for example, histamine and serotonin. […] The shock, followed by dead, can be avoided if the rats are pretreated with a classical H 1 antagonist.
Male rats of a Wistar inbred strain, weighing 220-250 g, were starved overnight, water being available ad libitum. The test compounds were administered orally as a solution or as a suspension in aqueous medium. A control rat and a "blank" rat received the test compound. One hour later 5-[4-(diphenylmethyl)-1-piperazinylmethyl]-1-methyl-1H-benzimidazole-2-methanol was administered subcutaneously to all rats at the dose of 2.5 mg/kg.
Four hours after the intravenous injection of compound 48/80, the rats were decapitated and the stomachs were removed. Subsequently the stomachs ere inspected for distension and contents (blood, fluid, food) and thoroughly rinsed. The macroscopic lesions were scored from 0 to +++, 0 corresponding to complete absence of visible lesions and the highest score corresponding to reddish rough patches covering more than half the glandular area.

[1] = test system: compound 48/80-induced lethality; assay: Protection of rats from compound 48/80-induced lethality; assay type: in vivo, rat (male, inbred Wistar strain); conditions: Rattus norvegicus, 4 h, read-out: Compound 48/80 lethality test in rats-ED50
Procedure: Protection of rats from compound 48/80-induced lethality
The protection from compound 48/80-induced lethal circulatory collapse appears to be a simple way of evaluating quantitatively the antihistaminic activity of test compounds. Male rats of an inbred Wistar strain, weighing 240-260 g were used in the experiment. After overnight starvation the rats were transferred to conditioned laboratories (temp.=21±1° C., relative humidity=65±5%).
The rats were treated subcutaneously or orally with a test compound or with the solvent (NaCl solution, 0.9%). […] Survival after 4 hours is therefore considered to be a safe criterion of a protective effect of drug administration.
The ED50 -values of the compounds of formula (I) are listed in the first column of table 1. Said ED50 -values are the values in mg/kg body weight at which the tested compounds protect 50% of the tested animals against compound 48/80-induced lethality.

[2] = Rattus norvegicus, po, 4 h; read-out: gastric lesion test ED50 (distension of the stomach and lesions in the glandular area completely absent in 50% of rats)
[3] = Rattus norvegicus, po, 4 h, read-out: gastric lesion test ED50 (distension of the stomach and lesions in the glandular area completely absent in 50% of rats)

For `Cc1nc2scc(C)n2c(=O)c1CCN1CCC(Nc2nc3ccccc3n2Cc2ccc(F)cc2)CC1` [Compound 1, 6-[2-[4-[[1-[(4-fluorophenyl)methyl]-1H-benzimidazol-2-yl]amino]-1-piperidinyl]ethyl]-3,7-dimethyl-5H-thiazolo[3,2-a]pyrimidin-5-one], the ED50 (serotonin; [2]) was 0.63 mg/kg and the ED50 [1] was 0.31 mg/kg.
With `Cc1nc2ccccn2c(=O)c1CCN1CCC(Nc2nc3ccccc3n2Cc2ccc(F)cc2)CC1` [Compound 4] the ED50 (serotonin; [3]) was 0.31 mg/kg and the ED50 [1] was 0.16 mg/kg.
`Cc1nc2ccccn2c(=O)c1CCN1CCC(Nc2nc3ccccc3n2Cc2ccco2)CC1` [Compound 5] showed an ED50 (serotonin; [2]) of 0.04 mg/kg and an ED50 [1] of 0.16 mg/kg.
With `Cc1nc2ccccn2c(=O)c1CCN1CCC(Nc2nc3cccnc3n2Cc2ccco2)CC1` [Compound 6] the ED50 (serotonin; [2]) was 0.63 mg/kg and the ED50 [1] was 0.08 mg/kg.
`Cc1nc2scc(C)n2c(=O)c1CCN1CCC(Nc2nc3cccnc3n2Cc2ccc(F)cc2)CC1` [Compound 7] showed an ED50 (serotonin; [2]) of 0.31 mg/kg and an ED50 [1] of 0.04 mg/kg.
Compound `Cn1cnc2c1c(=O)n(CCN1CCC(Nc3nc4ccccc4n3Cc3ccc(F)cc3)CC1)c(=O)n2C` [Compound 8] has an ED50 (serotonin; [3]) of 0.63 mg/kg and an ED50 [1] of 0.16 mg/kg.
`Cc1nc2scc(C)n2c(=O)c1CCN1CCC(Nc2nc3ccccc3n2Cc2ccco2)CC1` [Compound 9] showed an ED50 (serotonin; [2]) of 0.16 mg/kg and an ED50 [1] of 0.08 mg/kg.
In the case of `Cc1nc2scc(C)n2c(=O)c1CCN1CCC(Nc2nc3cccnc3n2Cc2ccco2)CC1` [Compound 10], the ED50 (serotonin; [2]) is reported as 0.16 mg/kg and the ED50 [1] is reported as 0.08 mg/kg.
`Cn1cnc2c1c(=O)n(CCN1CCC(Nc3nc4ccccc4n3Cc3ccco3)CC1)c(=O)n2C` [Compound 11] was tested, and the ED50 (serotonin; [2]) was 0.04 mg/kg and the ED50 [1] was 0.08 mg/kg.
With `Cn1cnc2c1c(=O)n(CCN1CCC(Nc3nc4cccnc4n3Cc3ccc(F)cc3)CC1)c(=O)n2C` [Compound 12] the ED50 (serotonin; [3]) was 0.31 mg/kg and the ED50 [1] was 0.16 mg/kg.
`Cc1nc2n(c(=O)c1CCN1CCC(Nc3nc4ccccc4n3Cc3ccco3)CC1)CCCS2` [Compound 13] showed an ED50 (serotonin; [2]) of 0.08 mg/kg and an ED50 [1] of 0.02 mg/kg.
Work on `Cc1nc2n(c(=O)c1CCN1CCC(Nc3nc4cccnc4n3Cc3ccco3)CC1)CCCS2` [Compound 14] yielded an ED50 [1] of 0.02 mg/kg.
`Cc1nc2n(c(=O)c1CCN1CCC(Nc3nc4ccccc4n3Cc3ccc(F)cc3)CC1)CCCS2` [Compound 15] gave an ED50 (serotonin; [2]) of 0.31 mg/kg and an ED50 [1] of 0.16 mg/kg.
`Cc1nc2n(c(=O)c1CCN1CCC(Nc3nc4cccnc4n3Cc3ccc(F)cc3)CC1)CCCS2` [Compound 16] showed an ED50 [1] of 0.16 mg/kg.
Compound `Cc1nc2n(c(=O)c1CCN1CCC(Nc3nc4ccccc4n3Cc3ccc(F)cc3)CC1)CCS2` [Compound 17] has an ED50 (serotonin; [2]) of 0.63 mg/kg and an ED50 [1] of 0.31 mg/kg.
Work on `Cc1nc2n(c(=O)c1CCN1CCC(Nc3nc4ccccc4n3Cc3ccco3)CC1)CCS2` [Compound 18] yielded an ED50 (serotonin; [2]) of 0.16 mg/kg and an ED50 [1] of 0.08 mg/kg.
`Cc1nc2ccccn2c(=O)c1CCN1CCC(Nc2nc3ccccc3n2Cc2cscn2)CC1` [Compound 19] gave an ED50 (serotonin; [2]) of 0.01 mg/kg and an ED50 [1] of 0.08 mg/kg.
Work on `Cc1ccc2nc(C)c(CCN3CCC(Nc4nc5cccnc5n4Cc4ccco4)CC3)c(=O)n2c1` [Compound 20] yielded an ED50 (serotonin; [2]) of 0.63 mg/kg and an ED50 [1] of 0.04 mg/kg.
`Cc1nc2ccc(Cl)cn2c(=O)c1CCN1CCC(Nc2nc3cccnc3n2Cc2ccco2)CC1` [Compound 21] gave an ED50 (serotonin; [2]) of 0.63 mg/kg and an ED50 [1] of 0.04 mg/kg.
Compound `Cc1nc2ccccn2c(=O)c1CCN1CCC(Nc2nc3cccnc3n2Cc2ccc(F)cc2)CC1.Cl.Cl` [Compound 22, 3-[2-[4-[[3-[(4-fluorophenyl)methyl]-3H-imidazo[4,5-b]-pyridin-2-yl]amino]-1-piperidinyl]ethyl]-2-methyl-4H-pyrido[1,2-a]pyrimidin-4-one dihydrochloride] has an ED50 [1] of 0.16 mg/kg.
Compound `O=c1[nH]c2ccccc2c(=O)n1CCN1CCC(Nc2nc3cccnc3n2Cc2ccc(F)cc2)CC1` [Compound 25] has an ED50 [1] of 0.16 mg/kg.
In the case of `O=c1[nH]c2ccccc2c(=O)n1CCN1CCC(Nc2nc3cccnc3n2Cc2ccco2)CC1` [Compound 26], the ED50 [1] is reported as 0.08 mg/kg.
`Cc1nc2sccn2c(=O)c1CCN1CCC(Nc2nc3ccccc3n2Cc2ccc(F)cc2)CC1` [Compound 27] gave an ED50 [1] of 0.08 mg/kg.
`O=c1[nH]c2ccccc2c(=O)n1CCCN1CCC(Nc2nc3ccccc3n2Cc2ccco2)CC1` [Compound 30] was tested, and the ED50 [1] was 0.16 mg/kg.
`O=c1[nH]c2ccccc2c(=O)n1CCCN1CCC(Nc2nc3cccnc3n2Cc2ccco2)CC1` [Compound 32] showed an ED50 [1] of 0.04 mg/kg.
With `Cn1c(=O)n(CCN2CCC(Nc3nc4cccnc4n3Cc3ccco3)CC2)c(=O)c2ccccc21` [Compound 35] the ED50 [1] was 0.02 mg/kg.
`Cn1c(=O)n(CCN2CCC(Nc3nc4cccnc4n3Cc3ccc(F)cc3)CC2)c(=O)c2ccccc21` [Compound 36] showed an ED50 [1] of 0.16 mg/kg.
`O=c1[nH]c2ccccc2c(=O)n1CCCN1CCC(Nc2nc3cccnc3n2Cc2ccc(F)cc2)CC1` [Compound 37] was tested, and the ED50 [1] was 0.16 mg/kg.
Work on `Cn1c(=O)c2c(ncn2CCN2CCC(Nc3nc4cccnc4n3Cc3ccco3)CC2)n(C)c1=O` [Compound 42] yielded an ED50 [1] of 0.16 mg/kg.
Compound `Cn1c(=O)c2c(ncn2CCN2CCC(Nc3nc4cccnc4n3Cc3ccc(F)cc3)CC2)n(C)c1=O` [Compound 43] has an ED50 [1] of 0.16 mg/kg.
Work on `Cc1nc2n(c(=O)c1CCN1CCC(Nc3nc4ccccc4n3Cc3ccco3)CC1)CCCC2` [Compound 44] yielded an ED50 [1] of 0.16 mg/kg.
`Cc1nc2n(c(=O)c1CCN1CCC(Nc3nc4ccccc4n3Cc3ccc(F)cc3)CC1)CCCC2` [Compound 45] gave an ED50 [1] of 0.08 mg/kg.
Work on `Cc1nc2n(c(=O)c1CCN1CCC(Nc3nc4cccnc4n3Cc3ccco3)CC1)CCS2` [Compound 48] yielded an ED50 [1] of 0.08 mg/kg.
Work on `Cc1nc2n(c(=O)c1CCN1CCC(Nc3nc4cccnc4n3Cc3ccco3)CC1)C(C)CCC2` (stereo not drawn) [Compound 54] yielded an ED50 [1] of 0.31 mg/kg.
`Cc1nc2n(c(=O)c1CCN1CCC(Nc3nc4ccccc4n3Cc3ccccn3)CC1)CCCC2` [Compound 57] was tested, and the ED50 [1] was 0.16 mg/kg.
For `Cc1nc2ccccn2c(=O)c1CCN1CCC(Nc2nc3ccccc3n2Cc2cnccn2)CC1` [Compound 68, 2-methyl-3-[2-[4-[[1-(2-pyrazinylmethyl)-1H-benzimidazol-2-yl]amino]-1-piperidinyl]ethyl]-4H-pyrido[1,2-a]pyrimidin-4-one], the ED50 [1] was 0.08 mg/kg.
In the case of `Cc1nc2n(c(=O)c1CCN1CCC(Nc3nc4ccccc4n3Cc3ccc(Cl)cc3)CC1)CCCC2` [Compound 69], the ED50 [1] is reported as 0.16 mg/kg.
In the case of `Cc1nc2cccc(C)n2c(=O)c1CCN1CCC(Nc2nc3cccnc3n2Cc2ccco2)CC1` [Compound 75], the ED50 [1] is reported as 0.01 mg/kg.
Compound `Cc1nc2ccc(Br)cn2c(=O)c1CCN1CCC(Nc2nc3cccnc3n2Cc2ccco2)CC1` [Compound 76] has an ED50 [1] of 0.08 mg/kg.
Compound `Cc1nc2ccccn2c(=O)c1CCN1CCC(Nc2nc3ccncc3n2Cc2ccc(F)cc2)CC1` [Compound 79] has an ED50 [1] of 0.16 mg/kg.
`Cc1nc2c(NCCN3CCC(Nc4nc5ccccc5n4Cc4ccc(F)cc4)CC3)ncnc2n1C` [Compound 96] gave an ED50 [1] of 0.16 mg/kg.
`Cn1cnc2c(NCCN3CCC(Nc4nc5ccccc5n4Cc4ccccc4)CC3)ncnc21` [Compound 100] was tested, and the ED50 [1] was 0.16 mg/kg.
`Cn1cnc2c(NCCN3CCC(Nc4nc5cc(O)ccc5n4Cc4ccc(F)cc4)CC3)ncnc21` [Compound 102] was tested, and the ED50 [1] was 0.08 mg/kg.
For `Fc1ccc(Cn2c(NC3CCN(CCOc4nc5cccnc5s4)CC3)nc3ccccc32)cc1` [Compound 107, 1-[(4-fluorophenyl)methyl]-N-[1-[2-[(thiazolo[5,4-b]pyridin-2-yl)oxy]ethyl]-4-piperidinyl]-1H-benzimidazol-2-amine], the ED50 [1] was 0.16 mg/kg.
`c1ccc(Cn2c(NC3CCN(CCNc4nc5cnccc5[nH]4)CC3)nc3cccnc32)nc1` [Compound 113] gave an ED50 [1] of 0.04 mg/kg.
Work on `O=c1[nH]c2ccccc2c(=O)n1CCCCN1CCC(Nc2nc3ccccc3n2Cc2ccco2)CC1` [Compound 128, 3-[4-[4-[[1-(2-furanylmethyl)-1H-benzimidazol-2-yl]amino]-1-piperidinyl]-butyl]-2,4(1H,3H)-quinazolinedione] yielded an ED50 [1] of 0.08 mg/kg.
`O=c1c2ccccc2[nH]c(=S)n1CCN1CCC(Nc2nc3ccccc3n2Cc2ccco2)CC1` [Compound 132, 3-[2-[4-[[1-(2-furanylmethyl)-1H-benzimidazol-2-yl]amino]-1-piperidinyl]ethyl]-2,3-dihydro-2-thioxo-4(1H)-quinazolinone] was tested, and the ED50 [1] was 0.16 mg/kg.
`O=c1[nH]c2c(Cl)ncnc2n1CCN1CCC(Nc2nc3ccccc3n2Cc2ccc(F)cc2)CC1` [Compound 144, 6-chloro-9-[2-[4-[[1-[(4-fluorophenyl)methyl]-1H-benzimidazol-2-yl]amino]-1-piperidinyl]ethyl]-7,9-dihydro-8H-purin-8-one] showed an ED50 [1] of 0.08 mg/kg.
`Fc1ccc(Cn2c(NC3CCN(CCc4cn5cccnc5n4)CC3)nc3ccccc32)cc1` [Compound 151, 1-[(4-fluorophenyl)methyl]-N-[1-[2-(imidazo[3,2-a]pyrimidin-2-yl)ethyl]-4-piperidinyl]-1H-benzimidazol-2-amine] gave an ED50 [1] of 0.08 mg/kg.
